The subject of data set [1] is BV-2. The data set can be described thus: Inhibition of LPS-induced NO production in mouse BV2 cells after 20 hrs by Griess assay. As to conditions: BV-2, 20 h. In kind it is functional, cell-based. Background: Nitrite, measured by Griess reagent, commonly stands in for NO production.
In data set [2] the test system is BV-2. Briefly: Cytotoxicity against mouse BV2 cells NO inhibitory IC50 by MTT assay. It counts as cell-based. Background: Tetrazolium assays rely on reduction of a dye to a coloured formazan, in cell work by metabolically active cells.

Our source for the IC50 and Activity values is ChEMBL document CHEMBL4041528, “Natural NO inhibitors from the leaves of Callicarpa kwangtungensis: Structures, activities, and interactions with iNOS” (Bioorg Med Chem Lett, 2017).

The IC50 is the concentration needed to halve the response being measured. Read a high IC50 as weaker potency.

`C=C(C)c1ccc2c(c1)CC[C@H]1[C@](C)(C(=O)O)CCC[C@]1(C)O2` gave an IC50 in the data set on BV-2 [1] of 25.5 µM. Further, the Activity entry in the data set with BV-2 [2] is recorded as “Non-Toxic”.
`CC(C)[C@@]12C=C3CC[C@H]4[C@](C)(C(=O)O)CCC[C@]4(C)[C@]3(CC1)OO2`: the IC50 with BV-2 [1] was 52.4 µM. The Activity result in the data set on BV-2 [2] was “Non-Toxic”.
Turning to `C=C1CC[C@H](O)[C@@]2(C)O[C@H]2C[C@@H]2[C@@H]1CC2(C)C`, the midpoint of inhibition in the data set on BV-2 [1], the IC50, lay at 42.6 µM. The Activity entry with BV-2 [2] is “Non-Toxic”.
Turning to `CC(C)[C@]12CC[C@@]34O[C@@]3(CC[C@H]3[C@](C)(C(=O)O)CCC[C@@]34C)[C@H]1O2`, the IC50 in the data set on BV-2 [1] was > 81 µM. The Activity result in the data set on BV-2 [2] was “Non-Toxic”.
Regarding `CC(C)[C@@]12C=C3[C@H](O)C[C@H]4[C@](C)(C(=O)O)CCC[C@]4(C)[C@]3(CC1)OO2`, the IC50 with BV-2 [1] is > 81 µM. The Activity entry in the data set with BV-2 [2] is on record as “Non-Toxic”.
For `CC(C)[C@]12C=C3CC[C@H]4[C@](C)(C(=O)O)CCC[C@]4(C)[C@@]3(CC1)OO2`, the IC50 in the data set on BV-2 [1] amounted to 34.7 µM. In addition, in the data set with BV-2 [2], the Activity result was “Non-Toxic”.
In the case of `CC(C)[C@]12CC[C@]3(OO1)C(=CC[C@H]1[C@](C)(C(=O)O)CCC[C@@]13C)[C@@H]2O`, in the data set with BV-2 [1], the IC50 was 26.7 µM. For the same compound, the Activity entry in the data set on BV-2 [2] is given as “Non-Toxic”.
With `CC1(C)C[C@H](O)[C@]23CC[C@@H](O)[C@](C)(CC[C@@H]12)C3`, the half-maximal inhibitory concentration (IC50) with BV-2 [1] turned out to be 62.2 µM. For the same compound, the Activity entry in the data set with BV-2 [2] is “Non-Toxic”.
As to `CC1(C)C[C@@H]2C(=O)CC[C@H]3O[C@]3(C)CC[C@H]21` [KOBUSONE], the IC50 in the data set on BV-2 [1] was > 81 µM. Further, in the data set with BV-2 [2], the Activity entry is reported as “Non-Toxic”.
With `C=C(C)c1ccc2c(c1)CC[C@H]1[C@](C)(CO)CCC[C@]21C`, the IC50 in the data set with BV-2 [1] is 15.3 µM. In the data set on BV-2 [2], the Activity entry is recorded as “Non-Toxic”.
In the data set with BV-2 [1], `CO[C@@H]1C[C@H]2[C@](C)(C(=O)O)CCC[C@]2(C)[C@]23CC[C@](C(C)C)(C=C12)OO3` came in with a half-maximal inhibitory concentration (IC50) of 23.7 µM. Besides, the Activity entry in the data set with BV-2 [2] was “Non-Toxic”.
`C=C1CC[C@H](O)/C(C)=C\C[C@@H]2[C@@H]1CC2(C)C`: the IC50 with BV-2 [1] was 13.6 µM. For the same compound, the Activity entry in the data set with BV-2 [2] was “Non-Toxic”.
In the case of `CC(C)c1ccc2c(c1)[C@@H](O)C[C@H]1[C@](C)(C(=O)O)CCC[C@]21C`, the IC50 in the data set with BV-2 [1] was determined as 17.9 µM. Moreover, the Activity result with BV-2 [2] is “Non-Toxic”.
